This is an account of results in ChEMBL document CHEMBL4219248, “Design, in silico prioritization and biological profiling of apoptosis-inducing lactams amenable by the Castagnoli-Cushman reaction” (Bioorg Med Chem, 2018).

The subject of series [1] is HCT-116. Briefly: Induction of apoptosis in human HCT116 p53+ cells at 5 uM by Annexin V-FITC staining-based flow cytometric analysis relative to Nutlin-3a. In kind it is functional. In general terms: In flow cytometry, cells or beads pass a laser one at a time.
Series [2] relates to U2OS. Briefly: Cytotoxicity against human U2OS cells harboring p53-dependent EGFP reporter gene assessed as reduction in cell viability at 5 uM after 48 hrs. In kind it is cell-based.
Series [3] relates to HCT-116. Kind of series: Antiproliferative activity against human HCT116 p53-/- cells assessed as growth inhibition after 24 hrs by EdU/Hoechst 33342 staining-based fluorescence analysis. Format: functional. To be noted: HCT-116, 24 h.
For series [4], the system named is HCT-116. Briefly: Antiproliferative activity against human HCT116 p53+/+ cells assessed as growth inhibition after 24 hrs by EdU/Hoechst 33342 staining-based fluorescence analysis. Format: functional. To be noted: HCT-116, 24 h.
Series [5] concerns U2OS. Kind of series: Cytotoxicity against human U2OS cells harboring p53-dependent EGFP reporter gene assessed as reduction in cell viability at 30 uM after 48 hrs. In kind it is cell-based.

Usually GI50 stands for the concentration giving 50% growth inhibition.

For `O=C(NCc1ccc2c(c1)OCO2)[C@H]1CC(=O)N(c2ccc(F)c(F)c2)[C@@H]1c1ccc(Cl)cc1` (mixture of isomers), the figures for the Activity in the series on HCT-116 [1] and in the series with U2OS [2] were 16% and “Toxic”, respectively.
In the case of `CCOc1cccc(CNC(=O)[C@H]2OCC(=O)N(c3ccc(F)c(F)c3)[C@@H]2c2cccc(C)c2)c1` (mixture of isomers), the Activity is 10.3% in the series on HCT-116 [1] and “Toxic” in the series on U2OS [2].
Consider `COc1ccc(CNC(=O)[C@H]2OCC(=O)N(c3ccc(Cc4ccncc4)cc3)[C@@H]2c2ccc(Cl)cc2)cc1` (mixture of isomers), for which the Activity with HCT-116 [1] is 6.4%; in the series with U2OS [2], “Toxic”.
In the same order, the values of `CCOc1ccc(CNC(=O)[C@H]2OCC(=O)N(c3ccc(F)c(F)c3)[C@@H]2c2cccc(C)c2)cc1` (mixture of isomers) are 8.5% and “Toxic”.
In the same order, the values of `CC(C)Oc1ccc([C@@H]2[C@@H](C(=O)NCc3ccccc3CN3CCOCC3)CCC(=O)N2c2ccc(Cc3ccncc3)cc2)cc1` (mixture of isomers) are 1.6% and “Toxic”.
As for `Cc1cccc([C@@H]2[C@@H](C(=O)NCc3cccnc3)OCC(=O)N2c2ccc(F)c(F)c2)c1` (mixture of isomers), the Activity in the series with HCT-116 [1] is 6.7%; in the series with U2OS [2], “Toxic”.
Consider `COc1ccc(CNC(=O)[C@H]2OCC(=O)N(c3ccc(F)c(Cl)c3)[C@@H]2c2ccc(Cl)cc2)cc1` (racemic), for which the Activity in the series on HCT-116 [1] is listed as 85.3%; with U2OS [2] it was “Toxic”. The GI50 with HCT-116 [3] was 62 µM; with HCT-116 [4], 18 µM.
In the case of `Cc1cccc(CNC(=O)[C@@H]2[C@@H](c3ccc(Cl)cc3)N(c3ccc(Cl)cc3)C(=O)CN2C(=O)c2ccncc2)c1` (racemic), the values for the Activity in the series on HCT-116 [1] and in the series on U2OS [2] were 63.4% and “Toxic”, respectively. Besides, the GI50 with HCT-116 [3] came to 80 µM; with HCT-116 [4], 30 µM.
Turning to `Cc1ccc(CNC(=O)[C@H]2OCC(=O)N(c3ccc(F)c(Cl)c3)[C@@H]2c2cccc(C)c2)cc1` (racemic), the Activity in the series with HCT-116 [1] is 9.5%; in the series with U2OS [2], “Toxic”.
With `COc1ccc(CNC(=O)[C@H]2CC(=O)N(c3ccc(F)c(Cl)c3)[C@@H]2c2ccc(Cl)cc2)c(OC)c1` (racemic), the Activity was 75% with HCT-116 [1] and “Toxic” with U2OS [2]. In addition, the GI50 in the series with HCT-116 [3] came to 71 µM; in the series with HCT-116 [4] it was 22 µM.
With `Cc1cccc([C@@H]2[C@@H](C(=O)NCc3ccc(F)cc3)OCC(=O)N2c2ccc(F)c(Cl)c2)c1` (racemic), the results for the Activity with HCT-116 [1] and in the series on U2OS [2] were 17% and “Toxic”, respectively.
In the case of `CCOc1cccc(CNC(=O)[C@H]2OCC(=O)N(c3ccccc3)[C@@H]2c2cccc(F)c2)c1` (racemic), the Activity is given as 3.2% with HCT-116 [1] and “Toxic” with U2OS [2].
In the same order, the values of `Cc1ccc(CNC(=O)[C@H]2OCC(=O)N(c3ccc(F)c(Cl)c3)[C@@H]2c2cccc(F)c2)cc1` (racemic) are 20.1% and “Toxic”.
Taken in the same sequence, the figures for `COCCCN(Cc1ccc(N(C)C)cc1)C(=O)[C@H]1OCC(=O)N(c2ccc(Cc3ccncc3)cc2)[C@@H]1c1ccc(Cl)cc1` (racemic) were 11.1% and “Toxic”.
In the same order, the values of `Cc1cccc([C@@H]2[C@@H](C(=O)NCc3ccccc3)OCC(=O)N2c2ccc(F)c(Cl)c2)c1` (racemic) are 3.7% and “Toxic”.
On to `Cc1cccc([C@@H]2[C@@H](C(=O)NCc3ccccc3F)OCC(=O)N2c2ccc(F)c(Cl)c2)c1` (racemic), for which the Activity was 18.9% with HCT-116 [1] and “Toxic” in the series on U2OS [2].
For the compound `O=C(NCc1ccc2c(c1)OCO2)[C@H]1OCC(=O)N(c2cccc(Cl)c2)[C@@H]1c1ccc(Cl)cc1` (racemic), the Activity in the series with HCT-116 [1] is 66.5%; with U2OS [2], “Toxic”. For the same compound, the results for the GI50 with HCT-116 [3] and in the series with HCT-116 [4] were 72 µM and 20 µM, respectively.
With `Cc1cccc([C@@H]2[C@@H](C(=O)NCc3cccnc3)OCC(=O)N2c2ccc(F)c(Cl)c2)c1` (racemic), the Activity with HCT-116 [1] is 12.4%; with U2OS [2], “Toxic”.
In the same order, the values of `COc1ccc(CN(CCCN2CCOCC2)C(=O)[C@H]2OCC(=O)N(c3ccc(Cc4ccncc4)cc3)[C@@H]2c2ccc(Cl)cc2)cc1` (racemic) are 1.6% and “Toxic”.
Consider `O=C(NCc1ccc2c(c1)OCCO2)[C@H]1CC(=O)N(c2ccc(F)c(F)c2)[C@@H]1c1ccc(Cl)cc1` (racemic), for which the Activity with HCT-116 [1] is given as 16%; with U2OS [2] it was “Toxic”.
Taken in the same sequence, the figures for `Cc1cccc([C@@H]2[C@@H](C(=O)NCc3ccc(Cl)cc3)OCC(=O)N2c2ccc(F)c(F)c2)c1` (racemic) were 7.1% and “Toxic”.
`CN(C)c1ccc([C@@H]2[C@@H](C(=O)NCc3ccccc3CN3CCCC3=O)OCC(=O)N2c2ccc(Cc3ccncc3)cc2)cc1` (racemic): the values for the Activity in the series on HCT-116 [1] and in the series with U2OS [2] were 0% and “Toxic”, respectively.
Taken in the same sequence, the figures for `C=CCOc1ccc([C@@H]2[C@@H](C(=O)NCCc3ccc(OC)c(OC)c3)N(C(=O)c3cccc(F)c3)CC(=O)N2C)cc1OCC` (racemic) were 0% and “Toxic”.
`O=C(NCc1ccccc1CN1CCCC1=O)[C@H]1CC(=O)N(c2ccc(F)c(Cl)c2)[C@@H]1c1ccc(Cl)cc1` (racemic): the Activity in the series with HCT-116 [1] is recorded as 123.9%; with U2OS [2], “Toxic”. Also, the GI50 with HCT-116 [3] turned out to be 32 µM; with HCT-116 [4], 7 µM.
Take `O=C(NCc1ccc2c(c1)OCO2)[C@H]1CC(=O)N(c2ccc(F)c(Cl)c2)[C@@H]1c1ccc(Cl)cc1` (racemic): the Activity in the series on HCT-116 [1] is 90.7%; with U2OS [2], “Toxic”. For the same compound, the GI50 in the series with HCT-116 [3] was determined as 29 µM; with HCT-116 [4] it was 8 µM.
As to `COc1ccc(CNC(=O)[C@H]2OCC(=O)N(c3cccc(Cl)c3)[C@@H]2c2cccc(F)c2)cc1` (racemic), the Activity in the series on HCT-116 [1] is listed as 0%; in the series on U2OS [2], “Toxic”.
In the same order, the values of `O=C(NCc1ccc(-n2ccnc2)cc1)[C@H]1OCC(=O)N(c2cccc(Cl)c2)[C@@H]1c1cccc(C(F)(F)F)c1` (racemic) are 39.3% and “Toxic”.
Regarding `O=C(NCc1ccc2c(c1)OCO2)[C@H]1CC(=O)N(c2cccc(Cl)c2)[C@@H]1c1cccc(F)c1` (racemic), the figures for the Activity in the series on HCT-116 [1] and in the series on U2OS [2] were 79.5% and “Toxic”, respectively. In addition, the GI50 was 65 µM in the series on HCT-116 [3] and 19 µM in the series on HCT-116 [4].
As to `CCOc1ccc(CNC(=O)[C@H]2CC(=O)N(c3cccc(Cl)c3)[C@@H]2c2ccc(Cl)cc2)cc1` (racemic), the Activity with HCT-116 [1] is listed as 27.2%; with U2OS [2], “Toxic”.
In the same order, the values of `COCCN(Cc1ccc(N(C)C)cc1)C(=O)[C@H]1CC(=O)N(c2ccc(F)c(F)c2)[C@@H]1c1ccc(Cl)cc1` (racemic) are 19.2% and “Toxic”.
In the same order, the values of `Cc1cccc([C@@H]2[C@@H](C(=O)NCCc3ccc(Cl)cc3)OCC(=O)N2c2ccc(F)c(Cl)c2)c1` (racemic) are 14.3% and “Toxic”.
Consider `COc1cc(CNC(=O)[C@H]2CCC(=O)N(c3ccccc3)[C@@H]2c2ccc(Cl)cc2)ccc1OC(C)C` (racemic), for which the values for the Activity in the series on HCT-116 [1] and with U2OS [2] were 69.1% and “Toxic”, respectively. Besides, the figures for the concentration for 50% growth inhibition (GI50) in the series on HCT-116 [3] and with HCT-116 [4] were 81 µM and 26 µM, respectively.
Take `CCOc1cccc(CNC(=O)[C@H]2OCC(=O)N(c3ccc(F)c(Cl)c3)[C@@H]2c2cccc(F)c2)c1` (racemic): the Activity is given as 1.6% in the series with HCT-116 [1] and “Toxic” with U2OS [2].
Taken in the same sequence, the figures for `COc1ccc(N2C(=O)CN(C(=O)c3ccncc3)[C@H](C(=O)NCc3cccc(C)c3)[C@H]2c2ccc(Cl)cc2)cc1` (racemic) were 11.1% and “Toxic”.
Taken in the same sequence, the figures for `Cc1cccc([C@@H]2[C@@H](C(=O)NCc3ccc(Cl)cc3)OCC(=O)N2c2ccc(F)c(Cl)c2)c1` (racemic) were 16.8% and “Toxic”.
As to `O=C(NCc1ccc(Cl)cc1)[C@H]1OCC(=O)N(c2cccc(Cl)c2)[C@@H]1c1cccc(C(F)(F)F)c1` (relative stereo), the Activity is given as 84.6% with HCT-116 [1] and “Toxic” with U2OS [2]. Also, the figures for the GI50 with HCT-116 [3] and in the series on HCT-116 [4] were 40 µM and 12 µM, respectively.
On to `COCCCN(Cc1ccc(N2CCCC2)cc1)C(=O)[C@H]1CC(=O)N(c2cccc(Cl)c2)[C@@H]1c1ccc(Cl)cc1` (relative stereo), for which the Activity with HCT-116 [1] is on record as 24.1%; in the series on U2OS [2], “Toxic”.
Taken in the same sequence, the figures for `CC(C)Oc1ccc([C@@H]2[C@@H](C(=O)NCc3ccc(-n4ccnc4)cc3)CCC(=O)N2c2ccc(OC3CCCC3)cc2)cc1` (relative stereo) were 35.2% and “Toxic”.
In the series on HCT-116 [1], `CC(C)[C@@H](CS(=O)(=O)C(C)C)N1C(=O)[C@@](C)(CC(=O)O)C[C@H](c2cccc(Cl)c2)[C@H]1c1ccc(Cl)cc1` [NAVTEMADLIN] registered an Activity of 112%. Also, the GI50 in the series on HCT-116 [3] was 33 µM; in the series on HCT-116 [4], 7 µM.
On to `COc1ccc(C2=N[C@@H](c3ccc(Cl)cc3)[C@@H](c3ccc(Cl)cc3)N2C(=O)N2CCNC(=O)C2)c(OC(C)C)c1` [NUTLIN-3], for which the GI50 with HCT-116 [3] amounted to 29 µM; in the series with HCT-116 [4], 9 µM. In the series on U2OS [5], the Activity entry is on record as “Toxic”.
In the case of `CC(C)(C)C[C@@H]1N[C@@H](C(=O)N[C@H]2CC[C@H](O)CC2)[C@H](c2cccc(Cl)c2F)[C@]12C(=O)Nc1cc(Cl)ccc12` [SAR-405838], in the series on HCT-116 [1], the Activity was determined as 115%. Further, the results for the concentration for 50% growth inhibition (GI50) in the series with HCT-116 [3] and in the series with HCT-116 [4] were 38 µM and 6 µM, respectively.
